According to PubChem BioAssay AID330 (DTP/NCI, 2004):
Values joined by “and” are separate entries in the source; they are usually repeats but may differ in a detail not shown here. Equal values may be shown once. Inconclusive results and toxic doses are left out. How the source made its calls: active means survival T/C of 150% or more; inactive means T/C below 125% in these data.

Test system: P388 leukemia ip, CD2F1 mice, survival T/C
Assay: NCI In Vivo Anticancer Drug Screen. Data for tumor model P388 Leukemia (intraperitoneal) in CD2F1 (CDF1) mice
Settings: endpoint: median survival time, higher = longer survival
In short: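 Mice carrying the transplanted tumor received test compound or vehicle. Survival was recorded in each group, and the value is the treated-group measurement divided by that of the vehicle-treated control group.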

[1] = dose: 50.0 mg/kg/injection, schedule: Q01DX009 (ip), vehicle: saline with Tween-80
[2] = dose: 100.0 mg/kg/injection, schedule: Q01DX009 (ip), vehicle: saline with Tween-80
[3] = dose: 200.0 mg/kg/injection, schedule: Q01DX009 (ip), vehicle: saline with Tween-80
[4] = dose: 12.5 mg/kg/injection, schedule: Q01DX009 (ip), vehicle: saline with Tween-80
[5] = dose: 50.0 mg/kg/injection, schedule: Q01DX005 (ip), vehicle: Klucel (hydroxypropylcellulose) (HPC)
[6] = dose: 100.0 mg/kg/injection, schedule: Q01DX005 (ip), vehicle: Klucel (hydroxypropylcellulose) (HPC)
[7] = dose: 200.0 mg/kg/injection, schedule: Q01DX005 (ip), vehicle: Klucel (hydroxypropylcellulose) (HPC)
[8] = dose: 50.0 mg/kg/injection, schedule: Q01DX005 (ip), vehicle: saline with Tween-80
[9] = dose: 100.0 mg/kg/injection, schedule: Q01DX005 (ip), vehicle: saline with Tween-80
[10] = dose: 200.0 mg/kg/injection, schedule: Q01DX005 (ip), vehicle: saline with Tween-80
[11] = dose: 60.0 mg/kg/injection, schedule: Q01DX005 (ip), vehicle: saline with Tween-80
[12] = dose: 120.0 mg/kg/injection, schedule: Q01DX005 (ip), vehicle: saline with Tween-80
[13] = dose: 240.0 mg/kg/injection, schedule: Q01DX005 (ip), vehicle: saline with Tween-80

Measured: T/C

COC(=O)C1CC=C(c2ccccc2)CNC1 (stereo unspecified)
inactive: dose: 100.0 mg/kg/injection, schedule: Q01DX001 (ip), vehicle: saline with Tween-80 93 % of control | dose: 200.0 mg/kg/injection, schedule: Q01DX001 (ip), vehicle: saline with Tween-80 94 % of control

Cc1ccc2nc(Nc3nc(C)cc(C)n3)[nH]c2c1
inactive: dose: 60.0 mg/kg/injection, schedule: Q01DX005 (ip), vehicle: Klucel (hydroxypropylcellulose) (HPC) 103 % of control | dose: 120.0 mg/kg/injection, schedule: Q01DX005 (ip), vehicle: Klucel (hydroxypropylcellulose) (HPC) 100 % of control | dose: 240.0 mg/kg/injection, schedule: Q01DX005 (ip), vehicle: Klucel (hydroxypropylcellulose) (HPC) 97 % of control

O=C(OCCOCCN1CCCCC1)C1c2ccccc2Sc2ccc(Cl)cc21 (stereo unspecified)
inactive: dose: 12.5 mg/kg/injection, schedule: Q01DX005 (ip), vehicle: saline 100 % of control | dose: 25.0 mg/kg/injection, schedule: Q01DX005 (ip), vehicle: saline 105 % of control | dose: 50.0 mg/kg/injection, schedule: Q01DX005 (ip), vehicle: saline 100 % of control and 98 % of control

CNc1ncc2c(n1)N(C)C(=O)/C(=C\C(=O)OC)N2
inactive: dose: 40.0 mg/kg/injection, schedule: Q01DX009 (ip), vehicle: saline with Tween-80 101 % of control | dose: 80.0 mg/kg/injection, schedule: Q01DX009 (ip), vehicle: saline with Tween-80 93 % of control | dose: 160.0 mg/kg/injection, schedule: Q01DX009 (ip), vehicle: saline with Tween-80 99 % of control

CC(=O)/C=C/c1ccc(O)cc1
inactive: [1] 110 % of control | [2] 98 % of control | dose: 100.0 mg/kg/injection, schedule: Q04DX003 (ip), vehicle: saline with Tween-80 105 % of control | [3] 100 % of control | dose: 200.0 mg/kg/injection, schedule: Q04DX003 (ip), vehicle: saline with Tween-80 113 % of control | dose: 400.0 mg/kg/injection, schedule: Q04DX003 (ip), vehicle: saline with Tween-80 105 % of control

CN(C=O)S(C)(=O)=O
inactive: [1] 100 % of control | [2] 100 % of control | [3] 100 % of control

O=C(O)C(=O)O.[U]
inactive: [4] 100 % of control

CCC(=O)Cc1nc2n(c1O)C(=N)N=N2
inactive: dose: 60.0 mg/kg/injection, schedule: Q01DX005 (ip), vehicle: saline 98 % of control | dose: 120.0 mg/kg/injection, schedule: Q01DX005 (ip), vehicle: saline 98 % of control | dose: 240.0 mg/kg/injection, schedule: Q01DX005 (ip), vehicle: saline 98 % of control

Brc1cc(-c2ccccc2)ccc1OCC1CO1 (stereo unspecified)
inactive: [5] 101 % of control | [6] 108 % of control | [7] 97 % of control

CCOc1c(N=Nc2ccc(Cl)cc2Cl)c(C)nn1C(=S)S
inactive: dose: 60.0 mg/kg/injection, schedule: Q01DX005 (ip), vehicle: Klucel + Tween-80 90 % of control | dose: 120.0 mg/kg/injection, schedule: Q01DX005 (ip), vehicle: Klucel + Tween-80 103 % of control | dose: 240.0 mg/kg/injection, schedule: Q01DX005 (ip), vehicle: Klucel + Tween-80 100 % of control

O=C(O)CCS/N=N/c1nc2nc[nH]c(=O)c2[nH]1
inactive: [5] 107 % of control | [6] 103 % of control | [7] 104 % of control

COc1ccc2c(c1)OC(C)(C)C(c1ccccc1)=C2c1ccc(O)c([N+](=O)[O-])c1
inactive: [8] 100 % of control | [9] 101 % of control | [10] 102 % of control

CC(O)/C(=N\Nc1ccccc1)c1nc2ccccc2[nH]c1=O (stereo unspecified)
inactive: dose: 30.0 mg/kg/injection, schedule: Q01DX005 (ip), vehicle: saline with Tween-80 92 % of control | [11] 89 % of control | [12] 88 % of control

COC(=O)CC1C=CC(OC)[C@@]2(C)C(=O)C(OC)=CC(=O)[C@@H]12 (stereo partly specified)
inactive: [11] 101 % of control | [12] 105 % of control | [13] 91 % of control

N#CCc1nc2ccccc2nc1Cl
inactive: dose: 50.0 mg/kg/injection, schedule: Q01DX009 (ip), vehicle: distilled water + Tween-80 + alcohol 100 % of control | dose: 100.0 mg/kg/injection, schedule: Q01DX009 (ip), vehicle: distilled water + Tween-80 + alcohol 94 % of control

Cc1cc(=O)n2c(n1)sc1ccc3ccccc3c12
inactive: [11] 100 % of control | [12] 100 % of control | [13] 97 % of control

COC(=O)[C@H]1O[C@H]1c1cc[n+]([O-])cc1
inactive: dose: 25.0 mg/kg/injection, schedule: Q01DX005 (ip), vehicle: water 101 % of control | dose: 50.0 mg/kg/injection, schedule: Q01DX005 (ip), vehicle: water 102 % of control | dose: 100.0 mg/kg/injection, schedule: Q01DX005 (ip), vehicle: water 105 % of control | dose: 200.0 mg/kg/injection, schedule: Q01DX005 (ip), vehicle: water 109 % of control

S=C(Nc1ccc(Br)cc1)SCc1ccc(Cl)c(Cl)c1
inactive: dose: 50.0 mg/kg/injection, schedule: Q01DX009 (ip), vehicle: suspension in saline 105 % of control | dose: 100.0 mg/kg/injection, schedule: Q01DX009 (ip), vehicle: suspension in saline 111 % of control | dose: 200.0 mg/kg/injection, schedule: Q01DX009 (ip), vehicle: suspension in saline 110 % of control

Cc1onc(-c2c(F)cccc2Cl)c1C(=O)Nc1cc2cc([N+](=O)[O-])ccc2oc1=O
inactive: [11] 95 % of control | [12] 97 % of control | [13] 92 % of control

C=C(C)C1=CC(=O)C(C)(C)O1
inactive: [4] 106 % of control | dose: 25.0 mg/kg/injection, schedule: Q01DX009 (ip), vehicle: saline with Tween-80 105 % of control | [1] 102 % of control

CN1C2CCCC1CC1(C2)NC(=O)NC1=O (stereo unspecified)
inactive: dose: 50.0 mg/kg/injection, schedule: Q01DX009 (ip), vehicle: water 99 % of control | dose: 100.0 mg/kg/injection, schedule: Q01DX009 (ip), vehicle: water 100 % of control

CC(C)=CCCC(C)(OC1OC(COC2OC(CO)C(O)C2O)C(O)C(O)C1O)C1CCC2(C)C1C(O)CC1C3(C)CCC(OC4OC(CO)C(O)C(O)C4OC4OC(CO)C(O)C(O)C4O)C(C)(C)C3CCC12C (stereo unspecified)
inactive: dose: 2.0 mg/kg/injection, schedule: Q01DX009 (ip), vehicle: Klucel (hydroxypropylcellulose) (HPC) 88 % of control | dose: 4.0 mg/kg/injection, schedule: Q01DX009 (ip), vehicle: Klucel (hydroxypropylcellulose) (HPC) 95 % of control | dose: 8.0 mg/kg/injection, schedule: Q01DX009 (ip), vehicle: Klucel (hydroxypropylcellulose) (HPC) 104 % of control | dose: 16.0 mg/kg/injection, schedule: Q01DX009 (ip), vehicle: Klucel (hydroxypropylcellulose) (HPC) 114 % of control | dose: 32.0 mg/kg/injection, schedule: Q01DX009 (ip), vehicle: Klucel (hydroxypropylcellulose) (HPC) 98 % of control

N#Cc1ccc[n+](Cc2ccccc2)c1
inactive: [8] 100 % of control | [9] 103 % of control | [10] 100 % of control

Cc1c([N+](=O)[O-])ccn1C
inactive: [1] 98 % of control | [2] 105 % of control | [3] 97 % of control

CN(C)c1ccc(C(=C2C=CC(=Nc3ccccc3)c3ccccc32)c2ccc(N(C)C)cc2)cc1
inactive: dose: 3.12 mg/kg/injection, schedule: Q01DX005 (ip), vehicle: Klucel (hydroxypropylcellulose) (HPC) 100 % of control and 101 % of control | dose: 6.25 mg/kg/injection, schedule: Q01DX005 (ip), vehicle: Klucel (hydroxypropylcellulose) (HPC) 100 % of control and 104 % of control and 112 % of control | dose: 12.5 mg/kg/injection, schedule: Q01DX005 (ip), vehicle: Klucel (hydroxypropylcellulose) (HPC) 111 % of control and 114 % of control and 120 % of control | dose: 25.0 mg/kg/injection, schedule: Q01DX005 (ip), vehicle: Klucel (hydroxypropylcellulose) (HPC) 115 % of control and 118 % of control

O=C(O)CCCCCCCCCOC(C[N+](=O)[O-])C(Cl)(Cl)Cl (stereo unspecified)
inactive: dose: 50.0 mg/kg/injection, schedule: Q01DX009 (ip), vehicle: other 102 % of control | dose: 100.0 mg/kg/injection, schedule: Q01DX009 (ip), vehicle: other 103 % of control | dose: 200.0 mg/kg/injection, schedule: Q01DX009 (ip), vehicle: other 113 % of control

CC(C)(CN)SCc1ccccc1
inactive: dose: 25.0 mg/kg/injection, schedule: Q01DX009 (ip), vehicle: saline 100 % of control | dose: 25.0 mg/kg/injection, schedule: Q04DX003 (ip), vehicle: saline 100 % of control | dose: 50.0 mg/kg/injection, schedule: Q01DX009 (ip), vehicle: saline 100 % of control | dose: 50.0 mg/kg/injection, schedule: Q04DX003 (ip), vehicle: saline 86 % of control | dose: 100.0 mg/kg/injection, schedule: Q01DX009 (ip), vehicle: saline 100 % of control | dose: 100.0 mg/kg/injection, schedule: Q04DX003 (ip), vehicle: saline 90 % of control
